Assay [1] deals with T1, GSK3β (Rattus norvegicus, UniProt P18266).
T1 construct: endogenous in cells; host or cells: primary rat cortical neurons
The assay can be described thus: DARTS assay, GSK3β. It counts as binding. The settings on record: 20 μM KP; independent of detergent treatment. As to the method: Cultured primary rat cortical neurons were treated with either vehicle DMSO (0.1%) or 20 μM KP for 30 h. Cells were lysed in ice-cold lysis buffer (Tris.Cl pH8 50 mM, NaCl 150 mM, NP40 0.5%, N-dodecyl-b-D-maltoside 0.5%, Phosphatase Inhibitor (Pierce #88667) and Protease Inhibitor (Roche #11836153001)). Protein concentrations were determined by Bio-Rad DC Protein Assay kit using bovine albumin as standard. All steps were performed on ice. Samples were warmed to room temperature and digested with pronase (final concentration 1:500) for 30 min at 30° C. Digestion was halted using 0.5M EDTA. Only proteins not bound to KP were digested. The protein mixture was dialyzed using dialysis cassettes (Thermo Fisher 66203, 2K MWCO) and analyzed by LC-MS/MS method to identify proteins that are bound to KP, the latter step carried out in the Duke Proteomics Core Laboratory.
A drug affinity responsive target stability (DARTS) assay (Lomenick, et al., 2009, Proc Natl Acad Sci USA 106:21984-21989) was used to study direct binding of KP to GSK3ß (FIG. 8A) in primary cortical neurons. The findings were consistent with previous reports in cell lines (Knockaert, et al., 2002, The Journal of biological chemistry 277:25493-25501) yet novel in primary neurons. […]

Assay [2] relates to δ-cat S259. The assay can be described thus: Phosphoproteomics in rat primary cortical neurons, δ-cat. The following applies: 1 μM KP; after 1 h, sustained at 24 h. Format: cell-based. The method, then: Cultured rat primary cortical neurons were treated with either vehicle DMSO (0.1%) or 1 μM KP for 1 h/24 h. Cells were lysed in non-detergent-containing buffer (Tris.Cl pH8 50 mM, NaCl 150 mM, 0.5% Phosphatase Inhibitor (Pierce #88667) and Protease Inhibitor (Roche #11836153001)). 500 μL was removed and solid urea was added to a final concentration of 8M. Samples were sonicated for further solubilization. After clearing of insoluble material by centrifugation, protein concentration was measured by Bradford assay. 250 μg of total protein was removed from each sample and solubilization buffer was added to normalize all samples to 0.93 μg/μL protein. Samples were then spiked with bovine alpha-casein to 30 fmol/μg of total protein. Samples were reduced with 10 mM DTT at 32° C. for 45 min and then alkylated with 20 mM iodoacetamide at room temperature for 30 min. […]
TiO2 Enrichment. […] After cleanup using a C18 STAGE tip, and resuspension in 2% acetonitrile, 0.1% TFA, 10 mM citric acid samples were quantified.
Quantitative analysis of Phosphopeptide Enriched Samples. Quantitative LC-MS/MS was performed in singlicate (4 uL=33% of the total sample each injection) for phosphopeptide-enriched samples using a nanoAcquity UPLC system (Waters Corp) coupled to a Thermo QExactive Plus high resolution accurate mass tandem mass spectrometer (Thermo) via a nanoelectrospray ionization source. […]

T1 sequence (P18266 whole entry): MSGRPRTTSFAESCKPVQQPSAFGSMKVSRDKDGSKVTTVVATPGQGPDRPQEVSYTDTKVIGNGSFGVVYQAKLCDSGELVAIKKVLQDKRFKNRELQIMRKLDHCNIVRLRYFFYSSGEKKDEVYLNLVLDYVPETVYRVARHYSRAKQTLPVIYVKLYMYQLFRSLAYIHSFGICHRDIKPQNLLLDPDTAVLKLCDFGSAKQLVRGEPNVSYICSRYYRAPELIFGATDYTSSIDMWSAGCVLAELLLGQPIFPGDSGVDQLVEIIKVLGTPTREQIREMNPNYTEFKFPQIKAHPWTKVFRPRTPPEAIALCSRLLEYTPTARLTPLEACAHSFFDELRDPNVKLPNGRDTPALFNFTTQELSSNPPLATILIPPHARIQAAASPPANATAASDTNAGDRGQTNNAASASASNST

As to `O=C1Cc2c([nH]c3ccc(Br)cc23)-c2ccccc2N1` [kenpaullone, 9-bromo-7,12-dihydro-indolo [3,2-d] [1]benzazepin-6(5H)-one], the “binding of KP to GSK3ß” value in assay [1] is “documented”. The “S259 phosphorylation of δ-cat” value in assay [2] is given as “significant de-phosphorylation”.

Values taken from US20220281930A1, “COMPOSITIONS AND METHODS FOR THE TREATMENT OF PATHOLOGICAL PAIN AND ITCH” (DUKE UNIVERSITY, priority 2019, published 2022).
